Settings: Liquid, vibrating wire

CCOCC [diethyl ether]
Settings	mass density [kg/m3]	viscosity [mPa·s]
243.15 K, 100 kPa	768.339	0.412
243.15 K, 4360 kPa	771.759	0.427
243.15 K, 9400 kPa	775.801	0.445
243.15 K, 14450 kPa	779.603	0.463
243.15 K, 19460 kPa	783.16	0.481
253.15 K, 100 kPa	758.413	0.363
253.15 K, 4440 kPa	762.367	0.377
253.15 K, 9400 kPa	766.683	0.392
253.15 K, 14460 kPa	770.762	0.408
253.15 K, 19510 kPa	774.696	0.424
263.15 K, 100 kPa	747.885	0.323
263.15 K, 4390 kPa	752.036	0.335
263.15 K, 9440 kPa	756.778	0.35
263.15 K, 14430 kPa	761.197	0.364
263.15 K, 19430 kPa	765.357	0.378
273.15 K, 100 kPa	736.593	0.288
273.15 K, 4380 kPa	741.075	0.3
273.15 K, 9430 kPa	746.224	0.313
273.15 K, 14470 kPa	750.968	0.326
273.15 K, 19480 kPa	755.407	0.339
283.15 K, 100 kPa	725.632	0.26
283.15 K, 4390 kPa	730.65	0.27
283.15 K, 9420 kPa	735.997	0.283
283.15 K, 14500 kPa	741.302	0.294
283.15 K, 19540 kPa	746.114	0.307
293.15 K, 100 kPa	714.517	0.235
293.15 K, 4380 kPa	719.86	0.245
293.15 K, 9420 kPa	725.825	0.256
293.15 K, 14480 kPa	731.278	0.268
293.15 K, 19490 kPa	736.437	0.28
303.15 K, 220 kPa	702.89	0.214
303.15 K, 4380 kPa	708.706	0.223
303.15 K, 9420 kPa	715.312	0.234
303.15 K, 14500 kPa	721.122	0.245
303.15 K, 19560 kPa	726.788	0.256
313.15 K, 410 kPa	691.21	0.195
313.15 K, 4360 kPa	697.329	0.203
313.15 K, 9430 kPa	704.446	0.214
313.15 K, 14520 kPa	710.954	0.225
313.15 K, 19610 kPa	717.082	0.235
323.15 K, 350 kPa	678.758	0.179
323.15 K, 4380 kPa	685.74	0.187
323.15 K, 9430 kPa	693.587	0.197
323.15 K, 14490 kPa	700.362	0.209
323.15 K, 19510 kPa	707.014	0.217
333.15 K, 410 kPa	666.408	0.163
333.15 K, 4390 kPa	673.959	0.172
333.15 K, 9430 kPa	682.531	0.182
333.15 K, 14470 kPa	690.138	0.192
333.15 K, 19470 kPa	697.082	0.201
343.15 K, 340 kPa	653.148	0.15
343.15 K, 4390 kPa	661.825	0.158
343.15 K, 9420 kPa	671.37	0.167
343.15 K, 14460 kPa	679.704	0.178
343.15 K, 19470 kPa	687.162	0.187
353.15 K, 410 kPa	639.678	0.137
353.15 K, 4380 kPa	649.165	0.146
353.15 K, 9410 kPa	659.723	0.155
353.15 K, 14440 kPa	668.759	0.165
353.15 K, 19400 kPa	676.864	0.174
363.15 K, 510 kPa	625.615	0.126
363.15 K, 4380 kPa	636.228	0.134
363.15 K, 9390 kPa	647.821	0.144
363.15 K, 14400 kPa	657.773	0.153
363.15 K, 19350 kPa	666.459	0.162
373.15 K, 650 kPa	610.791	0.116
373.15 K, 4380 kPa	622.533	0.124
373.15 K, 9380 kPa	635.564	0.134
373.15 K, 14400 kPa	646.594	0.143
373.15 K, 19460 kPa	656.28	0.151

Source: the NIST ThermoML archive (doi:10.1016/j.fluid.2008.06.014)
